Results: US12371456B2, “Proteins for the treatment of epithelial barrier function disorders” (Genevive, Inc., priority 2017, dated 2025)

Tests used:
[1] = test system: DSS model of inflammatory bowel disease; test: DSS model: colon length and colon weight to length ratio; format: in vivo, C57BL/6 mice; settings: DSS treated mice
Experimental: Eight-week old C57BL/6 mice were housed 5 animals were cage and given food and water ad libitum for 7 days. Following the 7-day acclimation period, treatments were initiated concurrently with addition of 2.5% DSS to the drinking water. […] The mice were treated with 2.5% dextran sodium sulfate (DSS) in their drinking water for 6 days. Treatments were continued with SG-14 or […]-GLP2 twice a day (b.i.d.) in the morning and evening (every 8 and 16 hr) with i.p. injections at 50 nmoles/kg. Fresh 2.5% DSS drinking water was prepared every 2 days. Colon length was measured in mice included in the DSS model described in Example 7. […] The graphs in FIG. 10 and FIG. 11 represent data pooled from the single experiment (n=10).

[2] = test system: HCT8 enterocytes and HT29-MTX goblet cells (epithelial monolayer) co-cultured with U937 monocytes; test: Co-culture trans-epithelial electrical resistance (TEER) assay, barrier disruption by heat killed E. coli; format: cell-based, human; settings: staurosporine 100 nM, negative control
Experimental: Assays were performed as described below in trans-well plates where co-cultures of multiple cell types were performed utilizing a permeable membrane to separate cells. In the apical (top) chamber, human colonic epithelial cells, consisting of a mixture of enterocytes and goblet cells, were cultured until cells obtained tight junction formation and barrier function capacity as assessed by measurement of trans-epithelial electrical resistance (TEER). In the basolateral chamber, monocytes were cultured separately. Epithelial cells were primed with inflammatory cytokines.
Cell culture. The HCT8 human enterocyte cell line (ATCC Cat. No. CCL-244) was maintained in RPMI-1640 medium supplemented with 10% fetal bovine serum, 100 IU/ml penicillin, 100 µg/ml streptomycin, 10 µg/ml gentamicin and 0.25 µg/ml amphotericin (cRPMI). HT29-MTX human goblet cells (Sigma-Aldrich (St. Louis, MO; Cat. No. 12040401) were maintained in DMEM medium with 10% fetal bovine serum, 100 IU/ml penicillin, 100 µg/ml streptomycin, 10 µg/ml gentamicin and 0.25 µg/ml amphotericin (cDMEM). Epithelial cells were passaged by trypsinization and were used between 5 and 15 passages following thawing from liquid nitrogen stocks. U937 monocytes (ATCC Cat. No. 700928) were maintained in cRPMI medium as a suspension culture, and split by dilution as needed to maintain cells between 5×10^5 and 2×10^6 cells/ml. U937 cells were used up to passage 18 following thawing from liquid nitrogen stocks.
Epithelial cell culture. A mixture of HCT8 enterocytes and HT29-MTX goblet cells were plated at a 9:1 ratio, respectively, in the apical chamber of the transwell plate as described previously (Berget et al., 2017, Int J Mol Sci, 18:1573; Beduneau et al., 2014, Eur J Pharm Biopharm, 87:290-298). […] Epithelial cells were trypsinized from culture flasks and viable cells determined by trypan blue counting. […]
Co-culture assay. […] Trans-epithelial electrical resistance (TEER) readings were measured after the IFN-γ treatment and were used as the pre-treatment TEER values. […]

[3] = test system: HCT8 enterocyte and HT29-MTX goblet cell lines; test: Oris Cell Migration assay (epithelial cell wound healing); format: cell-based, human; settings: 48 hours; SG-14 1 μg/ml, EGF 30 ng/ml, staurosporine 100 nM; FIG. 5
Description: The 96 well Oris Cell Migration assay containing plugs preventing cell attachment in the center of each well was used according to the manufacturer's instructions (Platypus Technologies, Madison, WI). The migration assay plates were warmed to room temperature prior to use and plugs were removed from 100% confluence wells prior to cell addition. The HCT8 enterocyte and HT29-MTX goblet cell lines were used at a 9:1 ratio with a total of 5×10^4 total cells added per well (4.5×10^4 HCT8 cells and 0.5×10^4 HT29-MTX cells). Cells were incubated at 37° C.+5% CO2 for 24 hours. Plugs were then removed from all control and sample wells. Control wells included cells treated with the diluent vehicle as the blank, 30 ng/ml epidermal growth factor (EGF) as the positive control, and 100 nM staurosporine as the negative control, all diluted in cRPMI. Sample wells contained SG-14 protein at a concentration of 1 μg/ml diluted in cRPMI. 100% and 0% wells were cultured in cRPMI. […] The green fluorescent viability dye […] was added to all wells at a concentration of […] in PBS containing 0.9 mM CaCl2) and 0.5 mM MgCl2, incubated for 30 min at 37° C.+5% CO2, the dye was removed and cells were washed in PBS containing 0.9 mM CaCl2) and 0.5 mM MgCl2 and fluorescence was measured. […] Samples were normalized between 100% and 0% samples and values expressed as a percent growth.

[4] = parameters: species or system mice; settings: mouse, in vivo, ip

Gly2-GLP2: a stable analog of glucagon-like peptide 2 (GLP2); positive control in DSS model (HGDGSFSDEMNTILDNLAARDFINWLIQTKITD; Glucagon-like peptide 2; UniProt P01275 146-178, looked up, variant A2G) [reference compound]
Colon length ([1]; FIG. 10): significant improvement in colon length | Ratio between colon weight and length ([1]; FIG. 11): significant reduction

CN[C@@H]1C[C@H]2O[C@@](C)([C@@H]1OC)n1c3ccccc3c3c4c(c5c6ccccc6n2c5c31)C(=O)NC4 [staurosporine, reference compound]
Effect on TEER (control compound) [2]: drastic decrease in TEER | Wound healing (percent growth) [3]: suppressing cell proliferation

EGF: epidermal growth factor, positive control in wound healing assay
Wound healing (percent growth) [3]: increasing proliferation

fluorescently labeled bovine serum albumin: fluorescently labeled bovine serum albumin used for tracking after i.p. injection
Time at which protein reached the colon after i.p. delivery [4]: 6 h
